From patent US20240150423A1, “GLP-1 ANALOGUE-MODIFIED DIMERS WITH DIFFERENT CONFIGURATIONS, PREPARATION METHOD THEREOF, AND APPLICATION THEREOF IN TREATMENT OF TYPE II DIABETES” (Nanjing Finepeptide Biopharmaceutical Co.,Ltd, priority 2019, published 2024)
Where “and” joins values, the source holds several entries; their conditions need not be identical. Identical values can stand only once. Like-named read-outs stand apart in the source and are kept apart here.

Tests used:
[1] = tested on: Normal Kunming (KM) mice; assay: single oral glucose tolerance test (sOGTT); type: in vivo; conditions: for glucose peak in single OGTT: after a single administration and oral glucose, tail blood at 0-120 min
From the text: • 1. Methods: Normal Kunming (KM) mice (purchased from Guangdong Animal Center) were used for oral glucose tolerance test (OGTT) to obtain the hypoglycemic activity and durability of drug. […] The blood glucose meter and blood glucose test paper were from Bayer […]. The average blood glucose of each group was used as an evaluation standard: When the average blood glucose of experimental group was higher than that of the NaCl control group for two times, the measurement stopped and the hypoglycemic period compared to the blank control group was the effective duration. • 2. Results • 2.1 single OGTTs: after a single administration, the mice were orally administered glucose once and measured the blood glucose from the tail blood at 0, 10, 20, 40, 60 and 120 min. […] The duration of each monomer group was about 1⁄2-1⁄4 of the duration of its corresponding dimer group. […] Therefore, the 2G3 peptide was selected for treating type II diabetes (T2D) in vivo and subsequent experiments.

[2] = tested on: GLP-1R; assay: GLP-1R Western blot analysis in T2D model; type: in vivo, C57B16/J mice; conditions: compared with the model control group
[3] = tested on: Normal Kunming (KM) mice; assay: multiple OGTT (mOGTT): hypoglycemic duration after a single administration; type: in vivo; conditions: single injection at the same dose (1.126 nmol), subcutaneous
How it was run: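 Normal Kunming mice given a single dose, then oral glucose challenges; tail-blood glucose read by meter at 0, 10, 20, 40, 60 and 120 min. Duration scored as hypoglycemic period until group mean glucose exceeded the NaCl control twice.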

[4] = T2D model treatment: body weight and organ weights; type: in vivo, C57B16/J mice; conditions: 2G1 study, 35 days
Procedure: C57B16/J mice were placed in an SPF-level environment with a standard diet. All experimental operations were performed in accordance with the guidelines of the ethics and uses of experimental animals. […] The NaCl-PB group served as blank control and the model control group served as the T2D model control. They were injected with NaCl-PB solution. The T2D model group was fed with 60 kcal % high-fat diet (D12492, Changzhou SYSE Bio-tech. Co., Ltd., China) until the end of the experiment. Meanwhile the blank control group maintained standard diet. […] These groups were subjected to a 35-day treatment study on the basis of the high-fat diet. • 1. […] The monomeric peptides were dissolved into a saline solution (pH 6.5) for injection. • 2. […] The models were measured blood glucose at the tail and weight weighted every morning at 9 am. […] In the T2D treatment study, all T2D model mice were injected subcutaneously at the back hip in 100 μl per mouse within 30 min. The blood glucose of the experimental mice was measured every five days and the whole measurement was completed within 40 min. […] No. 8-9695-03-201-1, Novo Nordisk company, Switzerland) until the end of the 35-day experiment. • 3.

[5] = trial for 26 weeks; cited from earlier work
[6] = clinic trial for 24 weeks, once a day; cited from earlier work
[7] = cited from earlier work
[8] = tested on: thyroid C-cell; conditions: rodents, dose-dependent and time-dependent; cited from earlier work
[9] = speculated; cited from earlier work
[10] = in vivo; cited from earlier work
[11] = high dose 3.378 nmol/100 μL once a day
[12] = low dose 0.375 nmol/100 μL once a day
[13] = medium dose and Liraglutide group 1.126 nmol/100 μL once a day

Compound: 2G2 series 7: disulfide-linked homodimer of monomer SEQ ID NO: 7 (HAEGTFTSDVCSYLEGQAAXEFIAWLVRGRG; disulfide-linked homodimer; Sequence is synthesized; (20)..(20) Xaa is Xaa is 26Lys[N-e-(N-a-Palmitoyl-g-glutamyl)]; (31)..(31) C-terminal)
- hypoglycemic effect in single OGTT ([1]; with more time, no significant difference): stronger than that of monomeric G2 or G3
- GLP-1R expression (Western blot) [2]: significantly increased GLP-1R
- Hypoglycemic duration (days) [3]: 5 (2G2 peptide) days

Compound: CCCCCCCCCCCCCCCC(=O)N[C@@H](CCC(=O)NCCCC[C@H](NC(=O)[C@H](C)NC(=O)[C@H](C)NC(=O)[C@H](CCC(N)=O)NC(=O)CNC(=O)[C@H](CCC(=O)O)NC(=O)[C@H](CC(C)C)NC(=O)[C@H](Cc1ccc(O)cc1)NC(=O)[C@H](CO)NC(=O)[C@H](CO)NC(=O)[C@@H](NC(=O)[C@H](CC(=O)O)NC(=O)[C@H](CO)NC(=O)[C@@H](NC(=O)[C@H](Cc1ccccc1)NC(=O)[C@@H](NC(=O)CNC(=O)[C@H](CCC(=O)O)NC(=O)[C@H](C)NC(=O)[C@@H](N)Cc1c[nH]cn1)[C@@H](C)O)[C@@H](C)O)C(C)C)C(=O)N[C@@H](CCC(=O)O)C(=O)N[C@@H](Cc1ccccc1)C(=O)N[C@H](C(=O)N[C@@H](C)C(=O)N[C@@H](Cc1c[nH]c2ccccc12)C(=O)N[C@@H](CC(C)C)C(=O)N[C@H](C(=O)N[C@@H](CCCNC(=N)N)C(=O)NCC(=O)N[C@@H](CCCNC(=N)N)C(=O)NCC(=O)N[C@@H](CSSC[C@H](NC(=O)CNC(=O)[C@H](CCCNC(=N)N)NC(=O)CNC(=O)[C@H](CCCNC(=N)N)NC(=O)[C@@H](NC(=O)[C@H](CC(C)C)NC(=O)[C@H](Cc1c[nH]c2ccccc12)NC(=O)[C@H](C)NC(=O)[C@@H](NC(=O)[C@H](Cc1ccccc1)NC(=O)[C@H](CCC(=O)O)NC(=O)[C@H](CCCCNC(=O)CC[C@H](NC(=O)CCCCCCCCCCCCCCC)C(=O)O)NC(=O)[C@H](C)NC(=O)[C@H](C)NC(=O)[C@H](CCC(N)=O)NC(=O)CNC(=O)[C@H](CCC(=O)O)NC(=O)[C@H](CC(C)C)NC(=O)[C@H](Cc1ccc(O)cc1)NC(=O)[C@H](CO)NC(=O)[C@H](CO)NC(=O)[C@@H](NC(=O)[C@H](CC(=O)O)NC(=O)[C@H](CO)NC(=O)[C@@H](NC(=O)[C@H](Cc1ccccc1)NC(=O)[C@@H](NC(=O)CNC(=O)[C@H](CCC(=O)O)NC(=O)[C@H](C)NC(=O)[C@@H](N)Cc1c[nH]cn1)[C@@H](C)O)[C@@H](C)O)C(C)C)[C@@H](C)CC)C(C)C)C(=O)O)C(=O)O)C(C)C)[C@@H](C)CC)C(=O)O [2G1]
- Weight of organs, Heart [4, 11]: 0.121 ± 0.011a** g
- Weight of organs, Left kidney [4, 11]: 0.166 ± 0.040 g
- Weight of organs, Left testis [4, 11]: 0.086 ± 0.017 e* g
- Weight of organs, Liver [4, 11]: 1.293 ± 0.273 c* g
- Weight of organs, Lung [4, 11]: 0.144 ± 0.019 g
- Weight of organs, Pancreas [4, 11]: 0.145 ± 0.032 c* g
- Weight of organs, Right kidney [4, 11]: 0.175 ± 0.063 g
- Weight of organs, Right testis [4, 11]: 0.096 ± 0.011 g
- Weight of organs, Spleen [4, 11]: 0.095 ± 0.028 c* g
- Weight of organs, adipose tissue [4, 11]: 1.311 ± 0.629 c* g
- Weight of organs, Heart [4, 12]: 0.128 ± 0.023 g
- Weight of organs, Left kidney [4, 12]: 0.156 ± 0.021 g
- Weight of organs, Left testis [4, 12]: 0.094 ± 0.037 g
- Weight of organs, Liver [4, 12]: 1.290 ± 0.163 a*c** g
- Weight of organs, Lung [4, 12]: 0.146 ± 0.010 g
- Weight of organs, Pancreas [4, 12]: 0.129 ± 0.2a**c*** g
- Weight of organs, Right kidney [4, 12]: 0.147 ± 0.018 g
- Weight of organs, Right testis [4, 12]: 0.100 ± 0.021 b* g
- Weight of organs, Spleen [4, 12]: 0.107 ± 0.037 c* g
- Weight of organs, adipose tissue [4, 12]: 1.202 ± 0.406 c** g
- Weight of organs, Heart [4, 13]: 0.114 ± 0.010 a** g
- Weight of organs, Left kidney [4, 13]: 0.157 ± 0.030 g
- Weight of organs, Left testis [4, 13]: 0.100 ± 0.006 b** g
- Weight of organs, Liver [4, 13]: 1.211 ± 0.114 c** g
- Weight of organs, Lung [4, 13]: 0.139 ± 0.020 g
- Weight of organs, Pancreas [4, 13]: 0.155 ± 0.033 c*d* g
- Weight of organs, Right kidney [4, 13]: 0.139 ± 0.029 g
- Weight of organs, Right testis [4, 13]: 0.095 ± 0.011 g
- Weight of organs, Spleen [4, 13]: 0.101 ± 0.026 c* g
- Weight of organs, adipose tissue [4, 13]: 1.263 ± 0.276 c*** g

Compound: Albiglutide
- body weight reduction [5]: 0.6 kg

Compound: Dulaglutide
- body weight reduction [5]: 2.9 kg

Compound: His-Ala-Glu-Gly-Thr-Phe-Thr-Ser-Asp-Val-Cys-Ser-Tyr-Leu-Glu-Gly-Gln-Ala-Ala-Lys[N-ϵ-(N-α-Palmitoyl-L-γ-glutamyl)]-Glu-Phe-Ile-Ala-Trp-Leu-Val-Arg-Gly-Arg-Gly-OH (HAEGTFTSDVCSYLEGQAAXEFIAWLVRGRG; palmitoyl-γ-glutamyl on Lys; C-terminal acid; Sequence is synthesized; (20)..(20) Xaa is Xaa is 26Lys[N-e-(N-a-Palmitoyl-g-glutamyl)]; (31)..(31) C-terminal) [G2 series 7]
- glucose peak in single OGTT [1]: no blood glucose peak appeared

Compound: His-Ala-Glu-Gly-Thr-Phe-Thr-Ser-Asp-Val-Ser-Cys-Tyr-Leu-Glu-Gly-Gln-Ala-Ala-Lys[N-ϵ-(N-α-Palmitoyl-L-γ-glutamyl)]-Glu-Phe-Ile-Ala-Trp-Leu-Val-Arg-Gly-Arg-Gly-OH (HAEGTFTSDVSCYLEGQAAXEFIAWLVRGRG; palmitoyl-γ-glutamyl on Lys; C-terminal acid; Sequence is synthesized; (20)..(20) Xaa is 26Lys[N-e-(N-a-palmitoyl-L-g-glutamyl)]; (31)..(31) C-terminal) [G3 series 20]
- glucose peak in single OGTT [1]: no blood glucose peak appeared
- Hypoglycemic (day) ([3]; monomeric peptides): 4 (G3 peptide) day

Compound: His-βAla-Glu-Gly-Thr-Phe-Thr-Ser-Asp-Val-Ser-Cys-Tyr-Leu-Glu-Gly-Gln-Ala-Ala-Lys[N-ϵ-(N-α-oleoyl-L-γ-glutamy)]-Glu-Phe-Ile-Ala-Trp-Leu-Val-Arg-Gly-Arg-Gly-NH2 (HXEGTFTSDVSCYLEGQAAXEFIAWLVRGRG; beta-amino acid; oleoyl-gamma-Glu on Lys; C-terminal amide; Sequence is synthesized; (2)..(2) Xaa is bAla; (20)..(20) Xaa is 26Lys[N-e-(N-a-oleoyl-L-g-glutamyl)]; (31)..(31) N-terminal) [G6 series 50]
- Hypoglycemic ([3]; monomeric peptides): 4 days

Compound: Lixisenatide
- incidence of side reaction [6]: 2.5%
- symptomatic hypoglycemia rate [6]: 3.4%

Compound: Semaglutide
- injection-site discomfort and erythema ([7]; % of patients): 0.2%
- gastrointestinal adverse reactions ([7]; Semaglutide 0.5 mg group): 32.7%
- gastrointestinal adverse reactions ([7]; Semaglutide 1 mg group): 36.4%
- mean increase in amylase ([7]; human, in vivo): 13%
- mean increase in lipase ([7]; human, in vivo): 22%
- severe hypoglycemia ([7]; in combination with sulfonylurea, % of patients): 0.8-1.2%
- Cholelithiasis ([7]; two values printed 'respectively', groups not named): 1.5% and 0.4%
- thyroid C-cell tumor [8]: can cause thyroid C-cell tumor
- half-life [9]: 165 to 184 h
- hypoglycemic activity reduction compared with Liraglutide [10]: 3 times
